Where a name gives a salt, the structure may show the parent alone.
Tests used:
[1] = cited from earlier work
[2] = tested on: recurrent herpes simplex virus infections; conditions: cited from earlier work; for Healing time: topical treatment, recurrent cutaneous virus diseases
[3] = tested on: HIV; conditions: in vitro; cited from earlier work
[4] = phospholipid liposomes; WO 89/05152; cited from earlier work
[5] = tested on: Kaposi's sarcoma; conditions: intravenous treatment; cited from earlier work
[6] = tested on: reverse transcriptase of HIV; conditions: cited from earlier work
[7] = tested on: herpes simplex virus type 1 (strain R39); test: Test 4. Antiviral effect of liposomal foscarnet on HSV-1 (HL cells, ELISA); assay type: cell-based, HSV-1; human lung fibroblast (HL) cells; conditions: Human alphaherpesvirus 1, 24 h, read-out: Antiviral effect on HSV-1, IC50
Method: Liposomes were constructed according to Formulations 7 and 8. The liposomes were not purified from the surrounding foscarnet-containing medium and antiviral effects by the liposomes might therefore be underestimated by cell culture assays. Antiviral effects of liposomes against herpes simplex virus type 1 were tested using previously published methods (Abele, G., et al., Antiviral Chemistry & Chemotherapy (1991) 2(3), 163-169) with some modifications. Confluent human lung fibroblast (HL) cells were infected with HSV-1 (strain R39) for one hour at 37° C. The virus inoculum was removed, and various dilutions of foscarnet-loaded liposomes, empty liposomes or foscarnet in medium were added. After 24 h the cells were lysed by addition of Triton X100, subjected to a freeze-thaw cycle, and the cell lysates tested for viral replication in an HSV-1-specific ELISA. The results obtained at a virus dilution of 1:500 and an incubation time of 24 h are stated in the following Table 4.

[8] = tested on: human herpesvirus; conditions: in vitro; cited from earlier work
[9] = topical, 3% formulation; cited from earlier work
[10] = Systemic uptake of topically applied foscarnet (previous research); assay type: in vivo; conditions: about 100 mg of 5% foscarnet cream (about 5 mg foscarnet)
[11] = Test 5. Cytotoxicity of liposomal foscarnet (PBMC growth); assay type: cell-based; conditions: human PBMC, cell counter, read-out: Cytotoxicity, CIC50 (cell growth inhibitory concentration)
Method: Liposomes were prepared according to Formulation 7 above and the cytotoxic effects thereof tested using human peripheral blood mononuclear cells (PBMC) as previously described (method according to Palmer, S., et al., Aids Research and Human Retroviruses, Vol.11, No. 10, 1995 with some modifications). The PBMCs were incubated with the drugs in medium for 72 h and cell growth was measured in an automatic cell counter. Above 10 000 μM the liposomes themselves interfered with the cell counting.

## Nc1nc2c(ncn2COCCO)c(=O)[nH]1 [acyclovir, 9-[(2-hydroxyethoxy)methyl]guanine]
[1]; human, in vivo
  Adverse effects of therapy: very few adverse effects
[2]
  Healing time: only reduced by approximately one day

## CC(=O)OCC(CCn1cnc2cnc(N)nc21)COC(C)=O [famciclovir]
[2]
  Healing time: only reduced by approximately one day

## O=C(O)P(=O)(O)O [foscarnet, trisodium salt of phosphonoformic acid, hexahydrate]
[3]
  Antiviral activity against replication of HIV (in words): shows antiviral activity against the replication of HIV in vitro
[4]
  Intracellular antiviral activity in liposome-encapsulated form: several-fold higher intracellular antiviral activity
[5]
  Response of Kaposi's sarcoma patients: some patients have responded
[6]
  Inhibition of reverse transcriptase of HIV (in words): inhibits the reverse transcriptase of HIV
[1]; intravenous, CMV retinitis and acyclovir-resistant HSV in AIDS patients
  Side-effect of intravenous treatment: renal function impairment
[7]
  IC50: 151 µM
[8]
  Activity against human herpesvirus (in words): proven activity against all human herpesvirus in vitro
[9]
  Irritation of mucous membranes or the skin: known to cause irritation of mucous membranes or the skin
[10]
  Amount entering the systemic circulation per application: ≤ 0.25 mg per application
[2]; topical, conventional cream, recurrent HSV, immunocompetent patients
  Healing time of lesions: shortened by approximately one day
[11]
  CC50 at 72 h: 2.46 mM

## Nc1nc2c(ncn2CCC(CO)CO)c(=O)[nH]1 [penciclovir, 9-(4-hydroxy-3-hydroxymethylbut-1-yl)-guanine]
[2]
  Healing time: only reduced by approximately one day

## CC(C)[C@H](N)C(=O)OCCOCn1cnc2c(=O)[nH]c(N)nc21 [valaciclovir, L-valyl acyclovir]
[2]
  Healing time: only reduced by approximately one day

Reference: patent US6117857A, “Pharmaceutical composition” (priority 1995, dated 2000)
